According to patent US8791132B2, “Compounds and methods for treatment of hypertension” (Medivation Technologies, Inc., priority 2011, dated 2014):
Read-outs that look alike come from different tables or passages of the source.

Experiments:
[1] = molecular target: T1, human recombinant adrenergic α2A receptor (Homo sapiens, UniProt P08913); assay: Radioligand binding, adrenergic α2A ([3H]MK-912); details: for Percentage inhibition of ligand binding, Adrenergic α2A (0.1 μM) / Percentage inhibition of ligand binding, Adrenergic α2A: compound at 0.1 μM, 0.1 µM; for inhibition at 0.03 µM: read-out: Percentage inhibition of ligand binding, Adrenergic α2A (0.03 μM), compound at 0.03 μM; for Percentage inhibition of ligand binding, Adrenergic α2A: repeat assays, each datapoint shown
T1 construct: expressed in transfected cells; host or cells: insect Sf9 cells
T1 sequence (P08913 1-465): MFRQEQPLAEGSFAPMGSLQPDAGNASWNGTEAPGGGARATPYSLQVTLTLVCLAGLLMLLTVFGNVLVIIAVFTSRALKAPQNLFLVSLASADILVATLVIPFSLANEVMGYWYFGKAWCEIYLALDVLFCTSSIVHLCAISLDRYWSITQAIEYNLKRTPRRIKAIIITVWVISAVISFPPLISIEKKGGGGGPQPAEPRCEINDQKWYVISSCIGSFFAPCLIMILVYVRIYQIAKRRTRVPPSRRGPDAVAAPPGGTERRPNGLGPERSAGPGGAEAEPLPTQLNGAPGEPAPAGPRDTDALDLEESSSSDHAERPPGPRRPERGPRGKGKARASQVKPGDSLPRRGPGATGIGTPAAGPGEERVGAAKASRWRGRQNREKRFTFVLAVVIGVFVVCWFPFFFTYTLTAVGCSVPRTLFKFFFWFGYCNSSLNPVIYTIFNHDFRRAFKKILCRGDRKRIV
In short: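 Receptor expressed in Sf9 cells, in 50 mM Tris-HCl pH 7.4, 12.5 mM MgCl2, 2 mM EDTA; compounds incubated with 1 nM [3H]MK-912 for 60 min at 25 °C.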

[2] = molecular target: T2, rat adrenergic α1B receptor (Rattus norvegicus, UniProt P15823); assay: Radioligand binding, adrenergic α1B ([3H]Prazosin); details: for Percentage inhibition of ligand binding, Adrenergic α1B (0.1 μM) / Percentage inhibition of ligand binding, Adrenergic α1B: 0.1 µM
T2 construct: rat adrenergic α1B receptor obtained from Wistar Rat liver; from tissue; host or cells: Wistar rat liver
T2 sequence (P15823 1-515): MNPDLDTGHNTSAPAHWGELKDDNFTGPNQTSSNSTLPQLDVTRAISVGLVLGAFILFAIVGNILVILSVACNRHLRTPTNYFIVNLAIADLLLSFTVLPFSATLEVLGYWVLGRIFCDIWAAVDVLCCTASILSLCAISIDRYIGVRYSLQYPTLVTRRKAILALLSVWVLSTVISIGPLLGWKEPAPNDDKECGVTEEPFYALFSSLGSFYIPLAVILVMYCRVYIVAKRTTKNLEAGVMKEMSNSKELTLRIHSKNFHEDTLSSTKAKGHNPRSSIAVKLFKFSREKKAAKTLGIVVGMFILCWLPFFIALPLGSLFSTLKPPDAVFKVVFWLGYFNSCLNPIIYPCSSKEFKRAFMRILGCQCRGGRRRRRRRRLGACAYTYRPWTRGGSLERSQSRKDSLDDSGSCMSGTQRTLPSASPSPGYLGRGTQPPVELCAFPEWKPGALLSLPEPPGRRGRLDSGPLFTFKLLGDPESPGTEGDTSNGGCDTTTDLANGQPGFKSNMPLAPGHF
In short: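 Rat α1B receptor from Wistar rat liver was incubated with 0.25 nM [3H]prazosin for 60 min at 25 °C in 50 mM Tris-HCl, pH 7.4, 0.5 mM EDTA. Non-specific binding was defined with 10 μM phentolamine. Bound radioligand was measured by filtration and counting, reported as percent inhibition of specific binding.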

[3] = molecular target: T3, human recombinant adrenergic α2B receptor (Homo sapiens, UniProt P18089); assay: Radioligand binding, adrenergic α2B ([3H]Rauwolscine); details: for Ki: read-out: Ki α2B; for Percentage inhibition of ligand binding, Adrenergic α2B (0.03 μM) / Percentage inhibition of ligand binding, Adrenergic α2B: 0.03 µM
T3 construct: expressed in transfected cells; host or cells: CHO-K1
T3 sequence (P18089 1-450): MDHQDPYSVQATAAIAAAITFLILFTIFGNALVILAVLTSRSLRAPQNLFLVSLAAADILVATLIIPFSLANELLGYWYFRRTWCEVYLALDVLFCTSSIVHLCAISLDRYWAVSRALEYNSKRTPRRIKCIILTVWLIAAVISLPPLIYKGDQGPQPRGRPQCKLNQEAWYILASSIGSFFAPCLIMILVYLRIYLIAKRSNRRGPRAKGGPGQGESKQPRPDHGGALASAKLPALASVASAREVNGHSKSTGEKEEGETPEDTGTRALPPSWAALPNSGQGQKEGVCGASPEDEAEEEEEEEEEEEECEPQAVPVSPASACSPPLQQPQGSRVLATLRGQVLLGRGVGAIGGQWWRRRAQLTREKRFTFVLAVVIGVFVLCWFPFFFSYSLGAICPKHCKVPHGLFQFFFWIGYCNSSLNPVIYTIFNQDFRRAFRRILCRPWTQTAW
In short: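 Readout: percent inhibition of specific [3H]Rauwolscine binding, measured by filtration and counting. Conditions: CHO-K1 cell-expressed receptor, 2.5 nM radioligand, 60 min, 25° C, Tris-HCl pH 7.4 buffer with MgCl2, EDTA, BSA. Non-specific binding: 10 μM Prazosin.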

[4] = [3H]MK-912, repeat datapoints each shown
[5] = read-out: Percentage inhibition of ligand binding, Adrenergic α2A (0.1 μM), compound at 0.1 μM, [3H]MK-912, repeat datapoints each shown
[6] = compound at 0.1 μM, [3H]Prazosin, repeat datapoints each shown
[7] = read-out: Percentage inhibition of ligand binding, Adrenergic α1B (0.03 μM), compound at 0.03 μM, [3H]Prazosin, repeat datapoints each shown
[8] = read-out: Percentage inhibition of ligand binding, Adrenergic α1B (0.1 μM), compound at 0.1 μM, [3H]Prazosin, repeat datapoints each shown
[9] = compound at 0.03 μM, [3H]Rauwolscine, repeat datapoints each shown
[10] = read-out: Percentage inhibition of ligand binding, Adrenergic α2B (0.03 μM), compound at 0.03 μM, [3H]Rauwolscine, repeat datapoints each shown
[11] = compound at 0.1 μM, [3H]Prazosin, repeat assays, each datapoint shown
[12] = compound at 0.03 μM, [3H]Rauwolscine, repeat assays, each datapoint shown

Compound	Percentage inhibition of ligand binding, Adrenergic α2A (0.1 μM) [1, 4] [%]	inhibition at 0.1 µM [1, 5] [%]	Percentage inhibition of ligand binding, Adrenergic α1B (0.1 μM) [2, 6] [%]	inhibition at 0.1 µM [2, 8] [%]	Percentage inhibition of ligand binding, Adrenergic α2B (0.03 μM) [3, 9] [%]	inhibition at 0.03 µM [3, 10] [%]	further results
Cc1ccc2c(c1)c1c(n2CC(C)(O)c2cccnc2)CNCC1 (single isomer, unassigned) [128a]	34	31	45	37	100	97	Ki [1]: 98.6 nM; inhibition at 0.03 µM [1, 4]: 9%; inhibition at 0.03 µM [2, 7]: 14%; Ki [3]: 0.97 nM; inhibition at 0.1 µM ([3]; read-out: Percentage inhibition of ligand binding, Adrenergic α2B (0.1 μM), compound at 0.1 μM, [3H]Rauwolscine, repeat datapoints each shown): 104%
Cc1cnc2c(c1)c1c(n2CCc2ccc(C)nc2)CCN2CCCCC12 (single isomer, unassigned) [IV-8b]	22	–	5	–	3	–	–
Cc1ccc2c(c1)c1c(n2CC(C)(O)c2ccc(F)cc2)CCN2CCCC12 (single isomer, unassigned) [II-121a, 2-(4-fluoro-phenyl)-1-(9-methyl-1,2,3,4,5,10c-hexahydro-3a,6-diaza-cyclopenta[c]fluoren-6-yl)-propan-2-ol]	92	91	98	97	104	103	Ki [1]: 4.52 nM; inhibition at 0.03 µM [1, 4]: 65%; inhibition at 0.03 µM [2, 7]: 90%
Cc1ccc2c(c1)c1c(n2CC(O)c2ccncc2Cl)CCN(C)C1 (single isomer, unassigned) [135a]	4	–	60	–	42	–	–
Cc1ccc2c(c1)c1c(n2CC(O)c2ncc[nH]2)CCN2CCCC12 (centres unmarked) [II-139, 1-(1H-imidazol-2-yl)-2-(10-methyl-2,3,5,6-tetrahydro-1H-indolizino[7,8-b]indol-7(11cH)-yl)ethanol]	–	7	–	34	–	72	–
Cc1cnc2c(c1)c1c(n2CCc2ccncc2)CCN(C)C1 [II-240]	–	7	–	57	–	53	–
Cc1cnc2c(c1)c1c(n2CC(C)(O)c2ccc(C(F)(F)F)nc2)CCN(C)C1 (single isomer, unassigned) [II-108b]	−6	–	−2	–	11	–	–
Cc1ccc2c(c1)c1c(n2CC(C)(OC(=O)C(C)(C)C)c2cccnc2)CCN(C)C1 (single isomer, unassigned) [II-16b, 2,2-dimethyl-propionic acid 2-(2,8-dimethyl-1,2,3,4-tetrahydro-pyrido[4,3-b]indol-5-yl)-1-methyl-1-pyridin-3-yl-ethyl ester]	–	–	–	–	–	–	inhibition at 0.1 µM ([1]; 0.1 μM compound, read-out: Percentage inhibition of ligand binding, Adrenergic α2A): 32%; inhibition at 0.03 µM ([2]; 0.03 μM compound, read-out: Percentage inhibition of ligand binding, Adrenergic α1B): 16%; Percentage inhibition of ligand binding, Adrenergic α1B ([2]; 0.1 μM compound): 46%; inhibition at 0.1 µM ([2]; 0.1 μM compound, read-out: Percentage inhibition of ligand binding, Adrenergic α1B): 32%; Percentage inhibition of ligand binding, Adrenergic α2B ([3]; 0.03 μM compound): 73%; inhibition at 0.03 µM ([3]; 0.03 μM compound, read-out: Percentage inhibition of ligand binding, Adrenergic α2B): 65%; inhibition at 0.1 µM ([3]; 0.1 μM compound, read-out: Percentage inhibition of ligand binding, Adrenergic α2B): 88%; Ki [3]: 5.58 nM
CN1CCc2c(c3cccc(Br)c3n2CC(O)c2ccncc2)C1 (single isomer, unassigned) [48b]	–	–	–	–	–	–	Percentage inhibition of ligand binding, Adrenergic α2A ([1]; [3H]MK-912): 17%; Percentage inhibition of ligand binding, Adrenergic α1B [2, 11]: 14%; Percentage inhibition of ligand binding, Adrenergic α2B [3, 12]: 86%
Cc1cnc2c(c1)c1c(n2CC(O)c2ccncc2)CCN(C)C1 (single isomer, unassigned) [55b, 2-(3,6-dimethyl-5,6,7,8-tetrahydro-1,6,9-triaza-fluoren-9-yl)-1-pyridin-4-yl-ethanol]	–	–	–	–	–	–	Percentage inhibition of ligand binding, Adrenergic α2A ([1]; [3H]MK-912): 7%; Percentage inhibition of ligand binding, Adrenergic α1B [2, 11]: 57%; Percentage inhibition of ligand binding, Adrenergic α2B [3, 12]: 67%
Cc1cc(C)c2c(c1)c1c(n2CC(O)c2ccncc2)CCN2CCCC12 (single isomer, unassigned) [II-125b, 2-(8,10-dimethyl-2,3,5,6-tetrahydro-1H-indolizino[7,8-b]indol-7(11cH)-yl)-1-(pyridin-4-yl)ethanol]	98	97	102	97	106	103	Ki [1]: 1.21 nM; inhibition at 0.03 µM [1, 4]: 89%; inhibition at 0.03 µM [2, 7]: 89%; Ki [3]: 0.16 nM
CN1CCc2c(c3cc(C(C)(C)O)ccc3n2CC(O)c2ccncc2)C1 (single isomer, unassigned) [23b, 2-(2,3,4,5-tetrahydro-5-(2-hydroxy-2-(pyridin-4-yl)ethyl)-2-methyl-1H-pyrido[4,3-b]indol-8-yl)propan-2-ol]	–	–	–	–	–	–	Percentage inhibition of ligand binding, Adrenergic α2A ([1]; [3H]MK-912): 1%; Percentage inhibition of ligand binding, Adrenergic α1B [2, 11]: 4%; Percentage inhibition of ligand binding, Adrenergic α2B [3, 12]: −3%
CN1CCc2c(c3cc(C(F)(F)F)ccc3n2CC(C)(O)c2cccnc2)C1 (single isomer, unassigned) [174b]	6	–	11	–	15	–	–
